Experimental data taken from patent US20210045385A1, “PYRIDAZINONE-SUBSTITUTED KETOXIMES AS HERBICIDES” (FMC Corporation, priority 2018, published 2021).

How the values were obtained:
Format in all cases: in vivo
[1] = system: barnyardgrass (Echinochloa crus-galli); experiment: Test D flooded paddy test, visual plant response rating; details: 250 g ai/ha, scale 0 to 100 (0 no effect, 100 complete control), 13 to 15 d
Method in brief: (§1)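 Visual injury scores, 0 (no effect) to 100 (complete control), were assigned after 13 to 15 d in the greenhouse by comparison with controls. Test compounds had been added to paddy water covering soil by 3 cm at the 2-leaf stage.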

[2] = system: duck salad (Heteranthera limosa); experiment: as above; details: 250 g ai/ha, scale 0 to 100 (0 no effect, 100 complete control), 13 to 15 d
Method in brief: as §1

[3] = system: rice (Oryza sativa); experiment: as above; details: 250 g ai/ha, scale 0 to 100 (0 no effect, 100 complete control), 13 to 15 d
Method in brief: as §1

[4] = system: sedge umbrella (small-flower umbrella sedge, Cyperus difformis); experiment: as above; details: 250 g ai/ha, scale 0 to 100 (0 no effect, 100 complete control), 13 to 15 d
Method in brief: as §1

[5] = system: barnyardgrass (Echinochloa crus-galli); experiment: Test C preemergence, visual plant response rating; details: Test C, 0 is no effect, 100 is complete control
Method in brief: (§2)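 Visual injury on a 0 (no effect) to 100 (complete control) scale versus untreated controls, scored approximately 10 d after treatment under greenhouse conditions. Treatments used surfactant-containing non-phytotoxic solvent formulations, sprayed onto loam–sand soil preemergence or onto one- to two-leaf plants 2–10 cm tall postemergence.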

[6] = system: foxtail, giant (giant foxtail, Setaria faberi); experiment: Test C preemergence, visual plant response rating; details: Test C, 0 is no effect, 100 is complete control
Method in brief: as §2

[7] = system: pigweed (Amaranthus retroflexus); experiment: Test C preemergence, visual plant response rating; details: Test C, 0 is no effect, 100 is complete control
Method in brief: as §2

[8] = system: kochia (Bassia scoparia); experiment: Test C preemergence, visual plant response rating; details: Test C, 0 is no effect, 100 is complete control
Method in brief: as §2

[9] = system: ragweed (common ragweed, Ambrosia artemisiifolia); experiment: Test C preemergence, visual plant response rating; details: Test C, 0 is no effect, 100 is complete control
Method in brief: as §2

[10] = system: Italian ryegrass (Lolium mutiflorum); experiment: Test C preemergence, visual plant response rating; details: Test C, 0 is no effect, 100 is complete control
Method in brief: as §2

[11] = system: barnyardgrass (Echinochloa crus-galli); experiment: Test C postemergence, visual plant response rating
Method in brief: as §2

[12] = system: foxtail, giant (giant foxtail, Setaria faberi); experiment: Test C postemergence, visual plant response rating
Method in brief: as §2

[13] = system: corn (Zea mays); experiment: Test C postemergence, visual plant response rating
Method in brief: as §2

[14] = system: pigweed (Amaranthus retroflexus); experiment: Test C postemergence, visual plant response rating
Method in brief: as §2

[15] = system: wheat (Triticum aestivum); experiment: Test C postemergence, visual plant response rating
Method in brief: as §2

[16] = system: kochia (Bassia scoparia); experiment: Test C postemergence, visual plant response rating
Method in brief: as §2

[17] = system: blackgrass (Alopecurus myosuroides); experiment: Test C postemergence, visual plant response rating
Method in brief: as §2

[18] = system: galium (catchweed bedstraw, Galium aparine); experiment: Test C postemergence, visual plant response rating
Method in brief: as §2

[19] = system: ragweed (common ragweed, Ambrosia artemisiifolia); experiment: Test C postemergence, visual plant response rating
Method in brief: as §2

[20] = system: Italian ryegrass (Lolium mutiflorum); experiment: Test C postemergence, visual plant response rating
Method in brief: as §2

[21] = Test C, postemergence, 125 g ai/ha

SMILES | Plant response rating, Barnyardgrass (Flood) [1] | Plant response rating, Ducksalad (Flood) [2] | Plant response rating, Rice (Flood) [3] | Plant response rating, Sedge, Umbrella (Flood) [4] | Barnyardgrass plant response rating (0 to 100 scale) ([5]; 31 g ai/ha) | Barnyardgrass plant response rating (0 to 100 scale) ([5]; 125 g ai/ha) | Foxtail, Giant plant response rating (0 to 100 scale) ([6]; 31 g ai/ha) | Foxtail, Giant plant response rating (0 to 100 scale) ([6]; 125 g ai/ha) | Pigweed plant response rating (0 to 100 scale) ([7]; 31 g ai/ha) | Pigweed plant response rating (0 to 100 scale) ([7]; 125 g ai/ha) | Kochia plant response rating (0 to 100 scale) ([8]; 31 g ai/ha) | Kochia plant response rating (0 to 100 scale) ([8]; 125 g ai/ha) | Ragweed plant response rating (0 to 100 scale) ([9]; 31 g ai/ha) | Ragweed plant response rating (0 to 100 scale) ([9]; 125 g ai/ha) | Ryegrass, Italian plant response rating (0 to 100 scale) ([10]; 31 g ai/ha) | Ryegrass, Italian plant response rating (0 to 100 scale) ([10]; 125 g ai/ha) | Barnyardgrass plant response rating (0 to 100 scale) ([11]; Postemergence, 31 g ai/ha) | Barnyardgrass plant response rating (0 to 100 scale) [11, 21] | Foxtail, Giant plant response rating (0 to 100 scale) ([12]; Postemergence, 31 g ai/ha) | Foxtail, Giant plant response rating (0 to 100 scale) [12, 21] | further results
CON=C(c1cc(Cl)cc(F)c1Cl)c1c(O)c(C)nn(C)c1=O [Compound 271] | 0 | 0 | 0 | 0 | 30 | 50 | 40 | 80 | 100 | 100 | 20 | 100 | 30 | 80 | 80 | 100 | 40 | 80 | 70 | 80 | Corn plant response rating (0 to 100 scale) ([13]; Postemergence, 31 g ai/ha): 10; Corn plant response rating (0 to 100 scale) [13, 21]: 30; Pigweed plant response rating (0 to 100 scale) ([14]; Postemergence, 31 g ai/ha): 80; Pigweed plant response rating (0 to 100 scale) [14, 21]: 90; Wheat plant response rating (0 to 100 scale) ([15]; Postemergence, 31 g ai/ha): 30; Wheat plant response rating (0 to 100 scale) [15, 21]: 70; Kochia plant response rating (0 to 100 scale) ([16]; Postemergence, 31 g ai/ha): 60; Kochia plant response rating (0 to 100 scale) [16, 21]: 80; Blackgrass plant response rating (0 to 100 scale) ([17]; Postemergence, 31 g ai/ha): 20; Blackgrass plant response rating (0 to 100 scale) [17, 21]: 40; Galium plant response rating (0 to 100 scale) ([18]; Postemergence, 31 g ai/ha): 100; Galium plant response rating (0 to 100 scale) [18, 21]: 100; Ragweed plant response rating (0 to 100 scale) ([19]; Postemergence, 31 g ai/ha): 70; Ragweed plant response rating (0 to 100 scale) [19, 21]: 90; Ryegrass, Italian plant response rating (0 to 100 scale) ([20]; Postemergence, 31 g ai/ha): 80; Ryegrass, Italian plant response rating (0 to 100 scale) [20, 21]: 100
CON=C(c1cc(Cl)cc(F)c1Cl)c1c(O)c(C)nn(C)c1=O [Compound 272] | 25 | 60 | 15 | 65 | 30 | 50 | 80 | 80 | 70 | 100 | 10 | 90 | 20 | 40 | 90 | 100 | 40 | 60 | 60 | 90 | Corn plant response rating (0 to 100 scale) ([13]; Postemergence, 31 g ai/ha): 10; Corn plant response rating (0 to 100 scale) [13, 21]: 20; Pigweed plant response rating (0 to 100 scale) ([14]; Postemergence, 31 g ai/ha): 70; Pigweed plant response rating (0 to 100 scale) [14, 21]: 90; Wheat plant response rating (0 to 100 scale) ([15]; Postemergence, 31 g ai/ha): 30; Wheat plant response rating (0 to 100 scale) [15, 21]: 60; Kochia plant response rating (0 to 100 scale) ([16]; Postemergence, 31 g ai/ha): 70; Kochia plant response rating (0 to 100 scale) [16, 21]: 80; Blackgrass plant response rating (0 to 100 scale) ([17]; Postemergence, 31 g ai/ha): 30; Blackgrass plant response rating (0 to 100 scale) [17, 21]: 80; Galium plant response rating (0 to 100 scale) ([18]; Postemergence, 31 g ai/ha): 90; Galium plant response rating (0 to 100 scale) [18, 21]: 100; Ragweed plant response rating (0 to 100 scale) ([19]; Postemergence, 31 g ai/ha): 60; Ragweed plant response rating (0 to 100 scale) [19, 21]: 80; Ryegrass, Italian plant response rating (0 to 100 scale) ([20]; Postemergence, 31 g ai/ha): 90; Ryegrass, Italian plant response rating (0 to 100 scale) [20, 21]: 100
